Measured values as given in patent publication US7741344B2, “Process for preparing purified S-BEL and R-BEL and compositions thereof” (Washington University in St. Louis, priority 2002, dated 2010).

Experiments:
[1] = tested on: A-10 smooth muscle cells; assay: AVP-induced [3H]-arachidonic acid liberation from A-10 cells; type: cell-based, rat; details: 1 μM AVP, FIG. 5
Protocol: Quantification of [^3H]-Arachidonic Acid Liberation from A-10 Phospholipids—Rat aortic smooth muscle A-10 cells, cultured in 60 mm dishes (2.5×10^5 cells/dish), were radiolabeled with 0.5 μCi [^3H]-arachidonic acid per dish as previously described (29). Cells were washed once with DMEM containing 0.25% fatty acid free bovine serum albumin followed by two washes with DMEM alone. Cells were then incubated with the indicated concentrations of (R)-, (S)-, rac-BEL, or ethanol vehicle (0.1% final concentration) in DMEM for 20 min. This media was removed and the cells were then incubated with DMEM containing 10% heat-inactivated fetal bovine serum in the absence or presence of 1 μM AVP. In some tests, PMA (1 μM) or DOG (10 μM) was added to the medium containing AVP. After 5 mm, 1 ml of this medium was removed, lipids were extracted into 2 ml of chloroform/methanol/acetic acid (25:24:1 v/v) (38), and the remaining cells were scraped into 1 ml of deionized water prior to lipid extraction as described above. The chloroform layer was evaporated under nitrogen and the extracted lipids were separated by thin layer chromatography (petroleum ether/ethyl ether/glacial acetic acid 70:30:1). Regions containing fatty acids and phospholipids were scraped into vials and radioactivity was quantified by liquid scintillation spectrometry.
A-10 cells (2.5×10^5 cells/dish) were radiolabeled with [^3H]-arachidonic acid (0.5 μCi/dish) for 20 hrs. After washing to remove unincorporated [^3H]-arachidonic acid, cells were then incubated with either 1 μM or 5 μM (R)-BEL, (S)-BEL, rac-BEL, or ethanol vehicle (0.1%) in DMEM for 20 mm. This media was removed and the cells were then incubated with 3 ml of DMEM containing 10% heat-inactivated fetal bovine serum with or without 1 μM AVP. After 5 min, 1 ml of this medium was removed and lipids were extracted into 2 ml of chloroform/methanol/acetic acid (25:24:1). The remaining cells were scraped into 1 ml of deionized water and total lipids were extracted as described above. The chloroform layer was evaporated under nitrogen and the extracted lipids were separated by TLC. Regions containing fatty acids and phospholipids were scraped into vials and radioactivity was quantified by liquid scintillation spectrometry. Results are representative of four separate tests.
A-10 cells were radiolabeled with [^3H]-arachidonic acid, washed, and pre-incubated with 5 μM (S)-BEL or ethanol vehicle alone for 15 min as described in FIG. 5. DMEM media containing 10% heat-inactivated fetal bovine serum with or without 1 μM AVP was then added to the cells. After 5 min at 37° C., [^3H]-arachidonic acid released into the media and remaining within the cells (free and incorporated into phospholipids) was extracted into chloroform, separated by TLC, and quantified by liquid scintillation spectrometry as described in “Experimental Procedures”. Results are representative of three separate tests.

[2] = tested on: MAPK (ERK2) phosphorylation; assay: AVP-induced MAPK phosphorylation in A-10 cells (Western); type: cell-based, rat; details: 5 μM, 15 min, 1 μM AVP; FIG. 9

| SMILES | AVP-induced increase in non-esterified [3H]-arachidonic acid (in words) ([1]; 1 and 5 μM inhibitor) | AVP-induced phosphorylation of ERK2 [2] | inhibition of AVP-induced AA release ([1]; 5 μM inhibitor, 20 min pretreatment) |
| --- | --- | --- | --- |
| O=C1OC(=CBr)CCC1c1cccc2ccccc12 (racemic) [rac-BEL, Racemic (E)-6-(bromomethylene)-3-(1-naphthalenyl)-2H-tetrahydropyran-2-one] | significantly reduced | not effected | – |
| O=C1O/C(=C/Br)CC[C@@H]1c1cccc2ccccc12 [(R)-BEL, (R)(E)-6-(bromomethylene)-3-(1-naphthalenyl)-2H-tetrahydropyran-2-one] | – | not effected | about 10% |
